According to ChEMBL document CHEMBL1201862, “PubChem BioAssay data set” (2004):
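Tested at 5 concentrations; 48 h exposure; 96-well plates; endpoints linearly interpolated, else capped at highest concentration. Abbreviation: GI50, concentration required for 50% inhibition of growth.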 The source made the active and inactive calls. No stated cut-off is given here; in the data, active = GI50 up to about 1.1 µM and inactive = higher.

How the values were obtained:
Test in all cases: NCI-60 cell line screen, 48 h
MCF7 = tested on: MCF7
RPMI-8226 = tested on: RPMI-8226
UO-31 = tested on: UO-31
MOLT-4 = tested on: MOLT-4
NCI-H460 = tested on: NCI-H460
NCI-H522 = tested on: NCI-H522
SF-539 = tested on: SF-539
COLO 205 = tested on: COLO 205
MDA-MB-435 = tested on: MDA-MB-435
HOP-92 = tested on: HOP-92
ACHN = tested on: ACHN
M14 = tested on: M14
Malme-3M = tested on: Malme-3M
EKVX = tested on: EKVX
UACC-62 = tested on: UACC-62
PC-3 = tested on: PC-3
K562 = tested on: K562
SNB-19 = tested on: SNB-19
HCT-116 = tested on: HCT-116
NCI-H23 = tested on: NCI-H23
HCT-15 = tested on: HCT-15
SW-620 = tested on: SW-620
786-0 = tested on: 786-0
MDA-N = tested on: MDA-N
A498 = tested on: A498
U-251 = tested on: U-251
NCI/ADR-RES = tested on: NCI/ADR-RES
NCI-H226 = tested on: NCI-H226
OVCAR-3 = tested on: OVCAR-3
CAKI-1 = tested on: CAKI-1
MDA-MB-231 = tested on: MDA-MB-231
RXF 393 = tested on: RXF 393
IGROV-1 = tested on: IGROV-1
A549 = tested on: A549
HOP-62 = tested on: HOP-62
Hs-578T = tested on: Hs-578T
OVCAR-4 = tested on: OVCAR-4
SF-268 = tested on: SF-268
LOX IMVI = tested on: LOX IMVI
HCC 2998 = tested on: HCC 2998
OVCAR-5 = tested on: OVCAR-5
SF-295 = tested on: SF-295
SR = tested on: SR
DU-145 = tested on: DU-145
SN12C = tested on: SN12C
HT-29 = tested on: HT-29
KM12 = tested on: KM12
SK-MEL-2 = tested on: SK-MEL-2
TK-10 = tested on: TK-10
UACC-257 = tested on: UACC-257
HL-60 = tested on: HL-60
OVCAR-8 = tested on: OVCAR-8
BT-549 = tested on: BT-549
SK-MEL-28 = tested on: SK-MEL-28
SK-MEL-5 = tested on: SK-MEL-5
CCRF-CEM = tested on: CCRF-CEM
SK-OV-3 = tested on: SK-OV-3

Measured: GI50

C=C1CN2CC(=C)CN(C1)CS(=O)(=O)N1CC(=C)CN(CC(=C)C1)S(=O)(=O)N1CC(=C)CN(CC(=C)C1)S(=O)(=O)C2
> 100 µM: HCT-15
inactive: MCF7 50.1 µM | RPMI-8226 39.4 µM | UO-31 42 µM | MOLT-4 67.1 µM | NCI-H460 > 100 µM | NCI-H522 32.4 µM | SF-539 15.6 µM | COLO 205 34 µM | MDA-MB-435 43.9 µM | HOP-92 31.3 µM | ACHN 47.1 µM | M14 37.6 µM | Malme-3M 23.3 µM | EKVX 39.1 µM | UACC-62 93.3 µM | PC-3 17.7 µM | K562 56.5 µM | SNB-19 40.7 µM | HCT-116 51.3 µM | NCI-H23 78.7 µM | SW-620 71.8 µM | 786-0 18.7 µM | MDA-N 52.5 µM | A498 46.5 µM | U-251 32.7 µM | NCI/ADR-RES > 100 µM | NCI-H226 27.7 µM | OVCAR-3 > 100 µM | CAKI-1 > 100 µM | MDA-MB-231 24.2 µM | RXF 393 19.5 µM | IGROV-1 59.8 µM | A549 50.8 µM | HOP-62 20.6 µM | Hs-578T 25.4 µM | OVCAR-4 34.3 µM | SF-268 25.6 µM | LOX IMVI > 100 µM | HCC 2998 17.7 µM | OVCAR-5 56.8 µM | SF-295 31.9 µM | SR > 100 µM | DU-145 38.3 µM | SN12C 43.4 µM | HT-29 > 100 µM | KM12 40.4 µM | SK-MEL-2 38.4 µM | TK-10 22.1 µM | UACC-257 23.6 µM | HL-60 35 µM | OVCAR-8 40 µM | BT-549 78.5 µM | SK-MEL-28 20.3 µM | SK-MEL-5 19.4 µM

O=C1CSC(=S)N1c1ccco1
inactive: MCF7 39.2 µM | RPMI-8226 59.3 µM | MOLT-4 > 100 µM | NCI-H460 > 100 µM | NCI-H522 23.4 µM | SF-539 66.7 µM | COLO 205 79.4 µM | MDA-MB-435 24.2 µM | HOP-92 > 100 µM | ACHN > 100 µM | M14 44.2 µM | Malme-3M > 100 µM | EKVX > 100 µM | PC-3 71.3 µM | K562 > 100 µM | CCRF-CEM > 100 µM | SNB-19 > 100 µM | HCT-116 60.4 µM | NCI-H23 > 100 µM | SW-620 41.1 µM | 786-0 25.4 µM | MDA-N 19.8 µM | A498 > 100 µM | U-251 > 100 µM | NCI/ADR-RES 37.9 µM | NCI-H226 > 100 µM | OVCAR-3 77.8 µM | CAKI-1 > 100 µM | MDA-MB-231 31.8 µM | RXF 393 > 100 µM | IGROV-1 > 100 µM | A549 > 100 µM | HOP-62 > 100 µM | Hs-578T > 100 µM | OVCAR-4 > 100 µM | SF-268 > 100 µM | SK-OV-3 > 100 µM | LOX IMVI 79.6 µM | OVCAR-5 > 100 µM | SF-295 > 100 µM | SR > 100 µM | DU-145 > 100 µM | SN12C 57.1 µM | HT-29 > 100 µM | KM12 21.9 µM | SK-MEL-2 46.7 µM | TK-10 > 100 µM | UACC-257 > 100 µM | HL-60 32.6 µM | OVCAR-8 56.5 µM | BT-549 16.3 µM | SK-MEL-28 > 100 µM | SK-MEL-5 43 µM
22 µM: HCT-15
